The record followed here is PMC10535535, “Imidazopyridine-Based Thiazole Derivatives as Potential Antidiabetic Agents: Synthesis, In Vitro Bioactivity, and In Silico Molecular Modeling Approach” (Pharmaceuticals, 2023).

One experiment deals with α-glucosidase. The experiment in a line: α-glucosidase inhibition assay (pNPG, spectrophotometric). Type of experiment: biochemical. The following applies: in vitro, pNPG substrate, 37 °C, triplicate; read-out: IC50 ± SEM. How it is done: With slight modification to an earlier technique, the α-glucosidase inhibition profiles of the synthesized scaffolds were assessed spectrophotometrically. Amounts of 10 μL of the sample, 120 μL of 100 mM potassium phosphate buffer, and […] of a 0.5 U/mL α-glucosidase solution (0.3 mM, in buffer) were combined for each chemical. […] Each combination was incubated at 37 °C for a separate period of 15 min. […] Once more, the mixture was incubated for 15 min at 37 °C. At that point, 80 μL of a 0.2 M sodium carbonate solution was administered to terminate the process. The mixture that included no enzymes also functioned as a blank sample. At 405 nm, the absorbance was finally calculated. To accurately measure the background absorbance, the blank sample, which replaced the substrate with 50 μL of the buffer, was examined. […] Assuming that A represents the absorbance of the control without test samples and B represents the absorbance with test samples present, the percentage of enzyme inhibition was computed as (1 B/A) 100. […] 4.4. Assay protocol for α-glucosidase inhibition The α-glucosidase inhibition profiles of synthesized scaffolds were determined spectrophotometrically, with some modifications to an earlier method. For each chemical, 10 μL of the sample, 120 μL of 100 mM potassium phosphate buffer, and 20 μL of 0.5 U/mL alpha-glucosidase solution was mixed (0.3 mM, in buffer). […] At 37 °C, each mixture was incubated for a separate 15 minutes. The enzymatic reaction was initiated by adding 20 μL of the substrate 4-nitrophenyl- D-α-glucopyranoside (pNPG) (5 mM) to the solution. The mixture was once more incubated at 37 °C for 15 minutes. To stop the process at that point, 80μL of sodium carbonate solution were injected (0.2 M). Additionally, the mixture without any enzymes served as a blank sample. The absorbance was finally determined at 405 nm. The blank sample, in which the substrate was swapped out for 50 μL of the buffer, was analyzed to properly quantify the background absorbance. […] The percentage of enzyme inhibition was calculated as (1 B/A) 100, assuming that A represents the absorbance of the control without test samples and B represents the absorbance with test samples present. The analyses were carried out in triplicate, and the results were presented as mean SD. 4.5. […] On the Discovery Studio R2 64-bit Client system, interactive molecular structure visualization and analysis were done. From the RCSB Protein Data Bank, the three-dimensional (3D) structure of α-glucosidase was retrieved (PDB). The chemical structures of the ligands were obtained from the Pub Chem compound database. Using Open Babel, the PDB files were converted into PDBQT files. For docking analysis, the PDB coordinates of the ligands and targets were optimized. Geometry optimization is carried out using Gaussian 09 (adding missing residues). […] Further details were summarized in our previous articles.
As for `O=[N+]([O-])c1cc(-c2csc(N/N=C\c3cnc4ccc(F)cn34)n2)cc(C(F)(F)F)c1` [4a], the IC50 was 6.85 ± 2.18 µM.

In the case of `O=[N+]([O-])c1cc(Cl)ccc1-c1csc(N/N=C\c2cnc3ccc(F)cn23)n1` [4b], the IC50 is 13.6 ± 1.67 µM.

Turning to `Fc1ccc2ncc(/C=N\Nc3nc(-c4ccc(-c5ccccc5)cc4)cs3)n2c1` [4c], the IC50 turned out to be 63.5 ± 5.28 µM.

With `CN(C)c1ccc(-c2csc(N/N=C\c3cnc4ccc(F)cn34)n2)cc1` [4d], the IC50 turned out to be 32.1 ± 4.29 µM.

Take `COc1cc(C)ccc1-c1csc(N/N=C\c2cnc3ccc(F)cn23)n1` [4e]: the IC50 was 44.9 ± 5.27 µM.

With `Cc1ccc(-c2csc(N/N=C\c3cnc4ccc(F)cn34)n2)c(C)c1` [4f], the IC50 stood at 51 ± 5.8 µM.

Regarding `O=[N+]([O-])c1ccc(C(F)(F)F)c(-c2csc(N/N=C\c3cnc4ccc(F)cn34)n2)c1` [4g], the IC50 came to 5.57 ± 3.45 µM.

For `Cc1ccccc1-c1csc(N/N=C\c2cnc3ccc(F)cn23)n1` [4h], the IC50 was determined as 43.2 ± 6.16 µM.

As to `COc1cc(O)ccc1-c1csc(N/N=C\c2cnc3ccc(F)cn23)n1` [4i], the IC50 is 34.9 ± 5.84 µM.

`Cc1ccc(-c2csc(N/N=C\c3cnc4ccc(F)cn34)n2)c([N+](=O)[O-])c1` [4j]: the IC50 was 22.6 ± 3.55 µM.

Take `Cc1cc(Cl)ccc1-c1csc(N/N=C\c2cnc3ccc(F)cn23)n1` [4k]: the IC50 is 34.7 ± 5.23 µM.

As to `Fc1ccc2ncc(/C=N\Nc3nc(-c4ccc(Cl)cc4Cl)cs3)n2c1` [4l], the IC50 is 19.3 ± 2.58 µM.

As to `COc1ccc(-c2csc(N/N=C\c3cnc4ccc(F)cn34)n2)c(OC)c1` [4m], the IC50 turned out to be 56.3 ± 5.94 µM.

With `Cc1ccc(-c2ccc(-c3csc(N/N=C\c4cnc5ccc(F)cn45)n3)cc2)cc1` [4n], the IC50 worked out at 61.4 ± 4.56 µM.

On to `O=[N+]([O-])c1ccc(O)c(-c2csc(N/N=C\c3cnc4ccc(F)cn34)n2)c1` [4o, (Z)-2-(2-(2-((6-fluoroimidazo[1,2-a]pyridin-3-yl)methylene)hydrazineyl)thiazol-4-yl)-4-nitrophenol], for which the IC50 was 7.16 ± 1.4 µM.

As to `Oc1ccc(-c2csc(N/N=C\c3cnc4ccc(F)cn34)n2)c(O)c1` [4p], the IC50 came out at 10.5 ± 2.2 µM.

Staying with this experiment, now noted: unit not given; in µM.
On to `COc1cc(O)ccc1-c1csc(N/N=C\c2cnc3ccc(F)cn23)n1` [4i], for which the IC50 was 34.91 ± 5.84.

The experiment is the same for the next values; noted with them: versus acarbose.
As for `Cc1ccc(-c2csc(N/N=C\c3cnc4ccc(F)cn34)n2)c([N+](=O)[O-])c1` [4j], the “potency as compared to the standard drug” value is on record as “two-fold more potency”.

For the compound `Fc1ccc2ncc(/C=N\Nc3nc(-c4ccc(Cl)cc4Cl)cs3)n2c1` [4l], the “potency as compared to the standard drug” value was “two-fold more potency”.
